In general, residual activity refers to the signal under treatment as a percentage of the control signal.

For three compounds, residual activity results are on record in ChEMBL document CHEMBL5649166, “RIP3 induces apoptosis independent of pronecrotic kinase activity” (Mol Cell, 2014).

Assay [1] concerns the target T1, Testis-specific serine/threonine-protein kinase 2 (Homo sapiens) (UniProt Q96PF2).
T1 sequence (whole entry): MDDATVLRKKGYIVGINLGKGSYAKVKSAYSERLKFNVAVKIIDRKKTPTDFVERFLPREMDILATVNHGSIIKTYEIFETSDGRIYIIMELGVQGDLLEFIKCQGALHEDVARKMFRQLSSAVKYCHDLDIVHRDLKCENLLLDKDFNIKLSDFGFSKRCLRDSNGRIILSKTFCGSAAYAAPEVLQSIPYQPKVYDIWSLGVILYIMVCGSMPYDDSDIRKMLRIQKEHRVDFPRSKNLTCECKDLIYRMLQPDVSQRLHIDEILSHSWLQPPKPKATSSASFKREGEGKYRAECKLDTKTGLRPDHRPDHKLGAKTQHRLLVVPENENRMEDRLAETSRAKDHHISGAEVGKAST
Briefly: Inhibition of human TSSK2 using KKKVSRSGLYRSPSMPENLNRPR as substrate at 1 uM in presence of 32P-ATP by Hotspot assay relative to control; values are per cent of control.

Assay [2] addresses CDK9/Cyclin K (Homo sapiens) (UniProt P50750+O75909). Description: Inhibition of human CDK9/cyclin K using KTFCGTPEYLAPEVRREPRILSEEEQEMFRDFDYIADWC as substrate at 1 uM in presence of 32P-ATP by Hotspot assay relative to control; values are per cent of control.
Assay [3] deals with T2, Beta-adrenergic receptor kinase 1 (Homo sapiens) (UniProt P25098).
T2 sequence (whole entry): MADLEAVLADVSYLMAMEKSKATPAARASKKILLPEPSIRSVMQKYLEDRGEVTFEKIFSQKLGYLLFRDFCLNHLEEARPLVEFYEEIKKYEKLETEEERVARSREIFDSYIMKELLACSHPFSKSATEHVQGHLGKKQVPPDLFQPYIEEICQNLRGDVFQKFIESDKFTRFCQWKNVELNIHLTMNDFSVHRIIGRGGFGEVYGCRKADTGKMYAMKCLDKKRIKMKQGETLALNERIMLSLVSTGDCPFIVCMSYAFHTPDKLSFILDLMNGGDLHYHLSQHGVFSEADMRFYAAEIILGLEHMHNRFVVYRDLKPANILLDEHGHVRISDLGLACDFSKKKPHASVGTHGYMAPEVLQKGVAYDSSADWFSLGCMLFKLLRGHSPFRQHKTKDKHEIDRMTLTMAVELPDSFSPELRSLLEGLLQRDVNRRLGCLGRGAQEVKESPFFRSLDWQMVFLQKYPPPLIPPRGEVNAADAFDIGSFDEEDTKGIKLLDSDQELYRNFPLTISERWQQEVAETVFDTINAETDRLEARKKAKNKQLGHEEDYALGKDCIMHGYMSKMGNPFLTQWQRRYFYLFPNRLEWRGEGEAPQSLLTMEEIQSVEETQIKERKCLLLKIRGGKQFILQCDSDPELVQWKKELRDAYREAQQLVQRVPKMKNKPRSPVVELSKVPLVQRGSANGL
Briefly: Inhibition of human GRK2 using casein as substrate at 1 uM in presence of 32P-ATP by Hotspot assay relative to control; values are per cent of control.

Assay [4] concerns the target Serine/threonine-protein kinase PAK 4 (Homo sapiens) (UniProt O96013). Briefly: Inhibition of human PAK4 using RRRLSFAEPG as substrate at 1 uM in presence of 32P-ATP by Hotspot assay relative to control; values are per cent of control.
Assay [5] has as its target T3, Protein kinase C epsilon type (Homo sapiens) (UniProt Q02156).
T3 sequence (whole entry): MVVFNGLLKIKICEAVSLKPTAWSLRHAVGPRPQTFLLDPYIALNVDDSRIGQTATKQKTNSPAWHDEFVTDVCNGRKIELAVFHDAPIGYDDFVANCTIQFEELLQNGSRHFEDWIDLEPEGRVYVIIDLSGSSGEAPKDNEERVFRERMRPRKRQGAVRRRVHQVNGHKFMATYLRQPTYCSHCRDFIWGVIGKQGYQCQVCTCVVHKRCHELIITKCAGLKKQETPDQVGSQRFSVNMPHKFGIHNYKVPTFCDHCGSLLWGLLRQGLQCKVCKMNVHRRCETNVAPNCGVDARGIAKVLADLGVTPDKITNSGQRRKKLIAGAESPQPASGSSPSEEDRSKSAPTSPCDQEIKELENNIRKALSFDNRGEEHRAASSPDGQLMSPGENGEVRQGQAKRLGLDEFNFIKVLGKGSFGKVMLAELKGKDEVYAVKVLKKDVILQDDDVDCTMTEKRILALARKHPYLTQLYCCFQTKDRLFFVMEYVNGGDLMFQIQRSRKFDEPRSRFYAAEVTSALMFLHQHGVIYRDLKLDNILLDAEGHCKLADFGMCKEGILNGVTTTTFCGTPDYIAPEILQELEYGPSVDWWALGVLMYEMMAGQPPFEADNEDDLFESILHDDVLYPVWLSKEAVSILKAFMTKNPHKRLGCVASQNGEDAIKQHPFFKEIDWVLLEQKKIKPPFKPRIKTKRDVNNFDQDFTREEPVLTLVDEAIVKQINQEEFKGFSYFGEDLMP
Description: Inhibition of human PKCepsilon using ERMRPRKRQGSVRRRV as substrate at 1 uM in presence of 32P-ATP by Hotspot assay relative to control; values are per cent of control.

The target in assay [6] is Angiopoietin-1 receptor (Homo sapiens) (UniProt Q02763). Briefly: Inhibition of human TIE2/TEK using poly[Glu:Tyr] (4:1) as substrate at 1 uM in presence of 32P-ATP by Hotspot assay relative to control; values are per cent of control.
Sequence of Angiopoietin-1 receptor (Homo sapiens) (Q02763 whole entry): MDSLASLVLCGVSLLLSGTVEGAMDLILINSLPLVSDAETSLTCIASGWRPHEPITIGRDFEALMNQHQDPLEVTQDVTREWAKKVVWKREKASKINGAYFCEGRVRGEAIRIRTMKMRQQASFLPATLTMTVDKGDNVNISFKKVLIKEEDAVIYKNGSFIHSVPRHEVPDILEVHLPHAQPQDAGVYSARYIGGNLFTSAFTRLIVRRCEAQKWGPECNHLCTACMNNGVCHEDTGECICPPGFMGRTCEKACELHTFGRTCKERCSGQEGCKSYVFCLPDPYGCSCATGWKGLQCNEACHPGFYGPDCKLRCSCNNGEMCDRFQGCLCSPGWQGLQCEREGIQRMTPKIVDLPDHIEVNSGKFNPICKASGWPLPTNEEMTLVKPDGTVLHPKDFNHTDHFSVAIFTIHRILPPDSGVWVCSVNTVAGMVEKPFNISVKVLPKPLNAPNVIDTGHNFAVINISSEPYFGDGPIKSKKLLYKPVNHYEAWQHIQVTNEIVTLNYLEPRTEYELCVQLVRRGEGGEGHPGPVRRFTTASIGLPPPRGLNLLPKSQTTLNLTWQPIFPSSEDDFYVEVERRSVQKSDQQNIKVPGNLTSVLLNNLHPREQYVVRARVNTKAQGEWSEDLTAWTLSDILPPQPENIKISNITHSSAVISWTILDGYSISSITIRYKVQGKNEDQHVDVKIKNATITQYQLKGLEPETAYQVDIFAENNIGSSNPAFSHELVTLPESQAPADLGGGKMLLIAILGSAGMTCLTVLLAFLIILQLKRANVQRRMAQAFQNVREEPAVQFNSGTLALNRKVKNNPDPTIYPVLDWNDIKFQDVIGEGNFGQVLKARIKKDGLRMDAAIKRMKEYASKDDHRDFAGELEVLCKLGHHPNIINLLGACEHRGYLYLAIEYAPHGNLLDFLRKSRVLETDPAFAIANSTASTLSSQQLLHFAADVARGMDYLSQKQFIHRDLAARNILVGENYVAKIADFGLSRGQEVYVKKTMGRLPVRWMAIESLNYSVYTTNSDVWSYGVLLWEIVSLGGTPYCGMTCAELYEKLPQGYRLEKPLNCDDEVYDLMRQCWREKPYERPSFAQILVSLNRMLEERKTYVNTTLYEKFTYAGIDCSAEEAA

Sequence of Serine/threonine-protein kinase PAK 4 (Homo sapiens) (O96013 whole entry, looked up): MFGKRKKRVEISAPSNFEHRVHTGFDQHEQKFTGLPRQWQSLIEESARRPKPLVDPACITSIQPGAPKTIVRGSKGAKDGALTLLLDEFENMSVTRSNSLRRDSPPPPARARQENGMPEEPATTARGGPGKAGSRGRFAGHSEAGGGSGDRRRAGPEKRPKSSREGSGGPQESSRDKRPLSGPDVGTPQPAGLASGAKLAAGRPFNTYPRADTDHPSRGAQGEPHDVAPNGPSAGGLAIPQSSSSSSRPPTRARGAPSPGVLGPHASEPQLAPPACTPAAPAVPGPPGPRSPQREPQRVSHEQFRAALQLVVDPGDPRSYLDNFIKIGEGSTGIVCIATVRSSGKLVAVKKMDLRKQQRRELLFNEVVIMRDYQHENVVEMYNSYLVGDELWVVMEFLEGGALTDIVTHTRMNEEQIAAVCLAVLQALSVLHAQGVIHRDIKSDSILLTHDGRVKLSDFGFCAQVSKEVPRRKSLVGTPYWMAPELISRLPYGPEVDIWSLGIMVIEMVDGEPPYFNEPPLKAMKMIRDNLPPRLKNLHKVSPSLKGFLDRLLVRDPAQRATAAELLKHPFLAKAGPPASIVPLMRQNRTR

On to `CNC(=O)c1ccc2c(c1)ncn2-c1ccc(CC(=O)OC(C)(C)C)cc1`, for which the residual activity in assay [1] was found to be 98.9%; in assay [2], 99.6%; in assay [3], 97.7%; in assay [4], 99.6%; in assay [5], 96.7%; in assay [6], 87.2%.

Take `Cc1cc(-c2cnc(N)c3c(-c4ccc5scnc5c4)csc23)n(C)n1`: the residual activity in assay [1] turned out to be 97.2%; in assay [2], 104%; in assay [3], 101%; in assay [4] it was 100%; in assay [5] it was 103%; in assay [6], 94.2%.

On to `CC(C)S(=O)(=O)c1ccc2nccc(Nc3ccc4scnc4c3)c2c1`, for which the residual activity came out at 102% in assay [1]; 94.5% in assay [2]; 101% in assay [3]; 99% in assay [4]; 96% in assay [5]; 98.7% in assay [6].
